A short description of series [1]: solubility of (+), (−) and racemic forms of tenatoprazole in water. The class given is physicochemical. The conditions noted are these: for solubility in water relative to the racemic form: versus racemic form.
The conditions of series [2]: versus other proton pump inhibitors such as omeprazole or lansoprazole; cited from earlier work.
The next series can be described thus: clinical. The following applies: human, plasma.
The nature of series [3]: chiral pharmacokinetic study, plasma analysis after chiral separation in genotyped subjects.
Protocol: In parallel, a chiral pharmacokinetic study was conducted to assess the preponderance of the pharmacokinetic characteristics of the (−) isomer in the pharmacokinetics of racemic tenatoprazole.
These subjects have a very weak metabolic activity concerning CYP2C19, which is responsible for the metabolism of tenatoprazole. […] These subjects are qualified as slow metabolisers.

The values below come from patent US8207190B2, “Enantiomer of tenatoprazole and the use thereof in therapy” (Mitsubishi Tanabe Pharma Corporation, priority 2003, dated 2012).

Structures are written as SMILES. ≈ marks a conversion by molar mass, not a printed value. Read-outs that look alike come from different tables or passages of the source.

One may read the solubility as how much of the substance goes into solution per volume. A high value points to much dissolved substance. One may read the half-life as how long it takes for the measured level to halve. For the molecule `COc1ccc2[nH]c([S+]([O-])Cc3ncc(C)c(OC)c3C)nc2n1` (racemic) [(±)racemic form, (+)-5-methoxy-2-{[(4-methoxy-3,5-dimethyl-2-pyridyl)methyl]sulfinyl}imidazo-[4,5-b]pyridine], the concentration in solution in series [1] (solubility) was 34.6 µg/mL (≈ 99.9 µM). Also, the “plasma half-life relative to other proton pump inhibitors” value in series [2] is recorded as “about seven”. For the same molecule, the figures for the half-life in “clinical” (20 mg) and in the series “clinical” (80 mg) were ~7 h and ~9 h, respectively.
Turning to `COc1ccc2[nH]c([S+]([O-])Cc3ncc(C)c(OC)c3C)nc2n1` (single isomer, unassigned; (-)) [(−) enantiomer], the “Solubility (water)” value in series [1] (listed as (−) form) was determined as 74.4 µg/mL (≈ 215 µM). Further, in series [1], the “solubility in water relative to the racemic form” value is given as “over 2 times”. In addition, in series [3] (rapid metabolisers, CYP2C19*1/*1 genotype), the “plasma concentration of the isomer compared with the other isomer” value is on record as “higher concentration”.
In the case of `COc1ccc2[nH]c([S+]([O-])Cc3ncc(C)c(OC)c3C)nc2n1` (single isomer, unassigned; (+)) [(+) form], in series [1], the “Solubility (water)” value turned out to be 93.0 µg/mL (≈ 268 µM) and the “solubility in water relative to the racemic form” value is ~3 times. In addition, in series [3] (slow metabolisers, CYP2C19*2/*2 genotype, plasma after chiral separation), the “plasma level of the isomer compared with the other isomer” value is listed as “highly significant increase”.
